Reference: patent publication US4206207A, “Use of 4-carboxy-phthalato(1,2-diaminocyclohexane)-platinum (II) and alkali metal salts thereof with cyclophosphamide in alleviating L1210 murine leukemia” (priority 1978, dated 1980)

Key:
[1] = tested on: L1210 leukemia; format: in vivo, mice; details: hydroxyurea alone, at least 1000 mg/kg
Method: Compound Pt-307 was administered usually in a dosage regimen of 5-60 mg/kg of body weight. This was given as a single dose or on Days 1, 5, and 9 in the standard National Institutes of Health 10-day testing.
CY was utilized at an optimum 50 mg/kg of body weight (range 25-75 mg/kg) preferably given at Day 3 in the 10-day testing. 5-FU was utilized at 75 mg/kg of body weight (range 50-100 mg/kg) at Day 3. HU was used in a high dosage of at least 1000 mg/kg of body weight (range 1000-1500 mg/kg). The 5-FU and the HU were utilized as ternary compositions only with cyclophosphamide and the platinum compound.
Hydroxyurea is utilized in combination therapy at a high dosage of at least 1000 mg/kg of body weight (range 1000-1500 mg/kg).

[2] = Renal Toxicity Screening Protocol, toxicity compared to NSC-119875; format: in vivo
[3] = tested on: adenocarcinoma of the stomach, pancreas, and large bowel; details: combined FU and radiation vs radiation alone; cited from earlier work

Structure (SMILES): NC(=O)NO [hydroxyurea]
- efficacy against L1210 (in words) [1]: only minimally effective

Structure (SMILES): NC1CCCCC1N.O=S(=O)([O-])[O-].[Pt+2] (stereo not shown) [NSC-250427]
- Body Weight Loss score ([2]; relative to NSC-119875): 2
- Clinical Chemistry - Blood Urea Nitrogen score ([2]; relative to NSC-119875): 1
- Clinical Chemistry - Creatinine score ([2]; relative to NSC-119875): 1
- Clinical Chemistry - Serum Glutamic Pyruvic Transaminase score ([2]; relative to NSC-119875): 5
- Hematology - Hematocrit score ([2]; relative to NSC-119875): 3
- Hematology - White Blood Cell score ([2]; relative to NSC-119875): 3
- Histopathology - Gastrointestinal score ([2]; relative to NSC-119875): 1
- Histopathology - Hematopoietic score ([2]; relative to NSC-119875): 4
- Histopathology - Lymphatic score ([2]; relative to NSC-119875): 2
- Histopathology - Renal score ([2]; relative to NSC-119875): 2
- TOTAL SCORE ([2]; sum of the ten scores): 24

Structure (SMILES): O=c1[nH]cc(F)c(=O)[nH]1 [5-FU, 5-fluorouracil]
- mean survival times (in words) [3]: significantly increased
